# Measurements taken from patent publication US10328084B2, “Pyrrolobenzodiazepines and targeted conjugates” (priority 2011, dated 2019).
# What was measured:
# Assay type in all cases: cell-based
# Caki-1 = test: in vitro cytotoxic activity, resazurin reduction assay, Caki-1; conditions: Homo sapiens, CAKI-1, 48 h, read-out: IC50 in pM following 48 hours treatment, Caki-1
# Protocol: (§1) The in vitro cytotoxic activity of the selected antibody drug conjugate was assessed using a resazurin (Sigma, St. Louis, Mo., USA) reduction assay (reference: Doronina et al., Nature Biotechnology, 2003, 21, 778-784). The antibody drug conjugate was prepared as described above.
# (§2) For the 96-hour assay, cells cultured in log-phase growth were seeded for 24 h in 96-well plates containing 150 μL RPMI 1640 supplemented with 20% FBS. Serial dilutions of ADC in cell culture media were prepared at 4× working concentration; 50 μL of each dilution was added to the 96-well plates. Following addition of ADC, the cells were incubated with test articles for 4 days at 37° C. Resazurin was then added to each well to achieve a 50 μM final concentration, and the plates were incubated for an additional 4 hours at 37° C. The plates were then read for the extent of dye reduction on a Fusion HT plate reader (Packard Instruments, Meridien, Conn., USA) with excitation and emission wavelengths of 530 and 590 nm, respectively. The IC50 value, determined in triplicate, is defined here as the concentration that results in a 50% reduction in cell growth relative to untreated controls.
# (§3) Referring to the table below, the in vitro cytotoxicity of the ADC using the 96 hour assay is shown. […]
# HEL9217 = test: in vitro cytotoxic activity, HEL9217; conditions: Homo sapiens, HEL 92.1.7; HEL9217, 48 hours treatment, free PBD dimer; read-out: IC50 in pM following 48 hours treatment, HEL9217
# Protocol: as §1
# as §2, with “For the 96-hour assay, cells cultured in log-phase growth were seeded for 24 h in 96-well plates containing 150 μL RPMI 1640 supplemented with 20% FBS.” left out, “Following addition of ADC, the cells were incubated with test articles for 4 days at 37° C.” left out
# HL60 = test: in vitro cytotoxic activity, HL60; conditions: Homo sapiens, HL-60; HL60, 48 hours treatment, free PBD dimer; read-out: IC50 in pM following 48 hours treatment, HL60
# Protocol: as §1
# as §2, with “For the 96-hour assay, cells cultured in log-phase growth were seeded for 24 h in 96-well plates containing 150 μL RPMI 1640 supplemented with 20% FBS.” left out, “Following addition of ADC, the cells were incubated with test articles for 4 days at 37° C.” left out
# 786-O = test: in vitro cytotoxic activity, resazurin reduction assay, 786-O; conditions: Homo sapiens, 786-0, 48 h, read-out: IC50 in pM following 48 hours treatment, 786-O
# Protocol: as §1, §2, §3
Structure (SMILES),IC50 (Caki-1) [pM],IC50 (HEL9217) [pM],IC50 (HL60) [pM],IC50 (786-O) [pM]
"COc1cc2c(cc1OCCCCCOc1cc3c(cc1OC)C(=O)N1C=C(c4ccc(OCCCN(C)C)cc4)C[C@H]1C=N3)N=C[C@@H]1CC(c3ccc(N)cc3)=CN1C2=O [compound 17, (S)-2-(4-aminophenyl)-8-((5-(((S)-2-(4-(3-(dimethylamino)propoxy)phenyl)-7-methoxy-5-oxo-5,11a-dihydro-1H-benzo[e]pyrrolo[1,2-a][1,4]diazepin-8-yl)oxy)pentyl)oxy)-7-methoxy-1H-benzo[e]pyrrolo[1,2-a][1,4]diazepin-5(11 aH)-one]",2,2,3,7
"COCCOCCOCCOCCOc1ccc(C2=CN3C(=O)c4cc(OC)c(OCCCCCOc5cc6c(cc5OC)C(=O)N5C=C(c7ccc(N)cc7)C[C@@H]5C=N6)cc4N=C[C@H]3C2)cc1 [compound 23, (R)-2-(4-(2,5,8,11-tetraoxatridecan-13-yloxy)phenyl)-8-((5-(((R)-2-(4-aminophenyl)-7-methoxy-5-oxo-5,11a-dihydro-1H-benzo[e]pyrrolo[1,2-a][1,4]diazepin-8-yl)oxy)pentyl)oxy)-7-methoxy-1H-benzo[e]pyrrolo[1,2-a][1,4]diazepin-5(11aH)-one]",100,100,40,100
